According to the NIST ThermoML archive (doi:10.1021/acs.jced.9b00511):
± gives the expanded uncertainty stated by the source.

Columns and labels:
[1] = Wilhelmy Plate
[2] = wn = mass fraction of the nth substance listed; conditions: Wilhelmy Plate

CC(O)CN(C)C (stereo not given) [1-(dimethylamino)-2-propanol]
[1]
Conditions | surface tension liquid-gas [mN/m]
303.2 K | 24 ± 0.4
308.2 K | 23.2 ± 0.4
313.2 K | 22.6 ± 0.4
318.2 K | 22 ± 0.4
323.2 K | 21.3 ± 0.4

C[N+](C)(C)C.NCC(=O)[O-] [tetramethylammonium glycinate]
[1]
Conditions | surface tension liquid-gas [mN/m]
303.2 K | 56.2 ± 0.4
308.2 K | 55.6 ± 0.4
313.2 K | 55.1 ± 0.4
318.2 K | 54.5 ± 0.4
323.2 K | 53.9 ± 0.4

CCCCn1cc[n+](C)c1.NCCCC[C@H](N)C(=O)[O-] [1-butyl-3-methylimidazolium L-lysinate]
[1]
Conditions | surface tension liquid-gas [mN/m]
303.2 K | 45.9 ± 0.6
308.2 K | 45.5 ± 0.5
313.2 K | 45.1 ± 0.5
318.2 K | 44.7 ± 0.5
323.2 K | 44.2 ± 0.5

C[N+](C)(C)C.NCC(=O)[O-] [tetramethylammonium glycinate] + O
surface tension liquid-gas [mN/m], [2]
Conditions | w1 = 0.025 | w1 = 0.05 | w1 = 0.075 | w1 = 0.1 | w1 = 0.15 | w1 = 0.2 | w1 = 0.4 | w1 = 0.6 | w1 = 0.8 | w1 = 1
303.2 K | 67.8 ± 1 | 65.4 ± 0.4 | 64.1 ± 0.8 | 62.7 ± 0.5 | 61.6 ± 0.5 | 60.2 ± 0.3 | 58.5 ± 0.3 | 57.6 ± 0.4 | 56.9 ± 0.4 | 56.2 ± 0.4
308.2 K | 66.6 ± 1 | 64.3 ± 0.8 | 62.9 ± 0.6 | 61.6 ± 0.4 | 60.6 ± 0.4 | 59.5 ± 0.3 | 57.8 ± 0.3 | 56.9 ± 0.4 | 56.3 ± 0.4 | 55.6 ± 0.4
313.2 K | 65.4 ± 0.9 | 63.3 ± 0.7 | 62.2 ± 0.6 | 60.6 ± 0.4 | 59.7 ± 0.4 | 58.8 ± 0.3 | 57.1 ± 0.3 | 56.2 ± 0.4 | 55.8 ± 0.4 | 55.1 ± 0.4
318.2 K | 64.3 ± 0.7 | 62.5 ± 0.7 | 61 ± 0.6 | 59.8 ± 0.4 | 58.9 ± 0.4 | 58.1 ± 0.3 | 56.5 ± 0.3 | 55.8 ± 0.4 | 55.2 ± 0.4 | 54.5 ± 0.4
323.2 K | 62.3 ± 0.6 | 61.1 ± 0.6 | 60 ± 0.4 | 58.7 ± 0.4 | 57.9 ± 0.4 | 57.1 ± 0.3 | 56 ± 0.3 | 55.4 ± 0.4 | 54.6 ± 0.4 | 53.9 ± 0.4

CCCCn1cc[n+](C)c1.NCC(=O)[O-] [1-butyl-3-methylimidazolium glycinate]
[1]
Conditions | surface tension liquid-gas [mN/m]
303.2 K | 42.9 ± 0.5
308.2 K | 42.6 ± 0.5
313.2 K | 42.4 ± 0.5
318.2 K | 42.1 ± 0.5
323.2 K | 41.7 ± 0.5

CCCCn1cc[n+](C)c1.NCCCC[C@H](N)C(=O)[O-] [1-butyl-3-methylimidazolium L-lysinate] + O
surface tension liquid-gas [mN/m], [2]
Conditions | w1 = 0.025 | w1 = 0.05 | w1 = 0.075 | w1 = 0.1 | w1 = 0.15 | w1 = 0.2 | w1 = 0.4 | w1 = 0.6 | w1 = 0.8 | w1 = 1
303.2 K | 62.5 ± 1.1 | 59.9 ± 1.1 | 57.3 ± 0.8 | 55.1 ± 0.7 | 52.5 ± 0.6 | 50.1 ± 0.4 | 48.4 ± 0.4 | 47.1 ± 0.4 | 46.4 ± 0.5 | 45.9 ± 0.6
308.2 K | 59.8 ± 0.9 | 57.7 ± 1 | 55.2 ± 0.9 | 53.3 ± 0.6 | 50.9 ± 0.5 | 49.1 ± 0.4 | 47.6 ± 0.4 | 46.4 ± 0.4 | 45.9 ± 0.5 | 45.5 ± 0.5
313.2 K | 57.3 ± 0.7 | 55.5 ± 0.9 | 53.2 ± 0.9 | 51.5 ± 0.6 | 49.3 ± 0.5 | 48.1 ± 0.3 | 46.8 ± 0.4 | 45.7 ± 0.4 | 45.5 ± 0.5 | 45.1 ± 0.5
318.2 K | 54.3 ± 0.8 | 52.5 ± 0.8 | 50.8 ± 0.7 | 49.4 ± 0.5 | 47.7 ± 0.4 | 46.8 ± 0.3 | 45.9 ± 0.4 | 45.3 ± 0.4 | 45 ± 0.5 | 44.7 ± 0.5
323.2 K | 51.1 ± 0.7 | 49.6 ± 1.4 | 48.5 ± 0.4 | 47.3 ± 0.4 | 46.2 ± 0.4 | 45.5 ± 0.3 | 45.1 ± 0.4 | 44.9 ± 0.4 | 44.6 ± 0.5 | 44.2 ± 0.5

CC(O)CN(C)C (stereo not given) [1-(dimethylamino)-2-propanol] + O
surface tension liquid-gas [mN/m], [2]
Conditions | 303.2 K | 308.2 K | 313.2 K | 318.2 K | 323.2 K
w1 = 0.3 | 36.2 ± 0.4 | 35.4 ± 0.4 | 34.6 ± 0.4 | 33.9 ± 0.4 | 33.2 ± 0.4
w1 = 0.4 | 33.5 ± 0.4 | 32.7 ± 0.4 | 32.1 ± 0.4 | 31.5 ± 0.4 | 30.9 ± 0.4
w1 = 0.5 | 31.5 ± 0.4 | 31 ± 0.4 | 30.2 ± 0.4 | 29.6 ± 0.4 | 29.1 ± 0.4
w1 = 1 | 24 ± 0.4 | 23.2 ± 0.4 | 22.6 ± 0.4 | 22 ± 0.4 | 21.3 ± 0.4

CCCCn1cc[n+](C)c1.NCC(=O)[O-] [1-butyl-3-methylimidazolium glycinate] + O
surface tension liquid-gas [mN/m], [2]
Conditions | w1 = 0.025 | w1 = 0.05 | w1 = 0.075 | w1 = 0.1 | w1 = 0.15 | w1 = 0.2 | w1 = 0.4 | w1 = 0.6 | w1 = 0.8 | w1 = 1
303.2 K | 59.4 ± 1.1 | 56.7 ± 0.6 | 53.6 ± 1.3 | 50.7 ± 0.8 | 48.3 ± 0.6 | 46.8 ± 0.3 | 46 ± 0.4 | 45.5 ± 0.4 | 44.7 ± 0.5 | 42.9 ± 0.5
308.2 K | 56.8 ± 1 | 54.3 ± 1.1 | 51.6 ± 1.1 | 49.2 ± 0.6 | 47.3 ± 0.5 | 45.9 ± 0.3 | 45.3 ± 0.4 | 44.9 ± 0.4 | 44.1 ± 0.5 | 42.6 ± 0.5
313.2 K | 54.1 ± 1 | 51.9 ± 1 | 49.5 ± 0.9 | 47.7 ± 0.5 | 46.2 ± 0.4 | 45 ± 0.3 | 44.6 ± 0.4 | 44.3 ± 0.4 | 43.5 ± 0.5 | 42.4 ± 0.5
318.2 K | 51.5 ± 0.8 | 49.6 ± 0.8 | 47.8 ± 0.7 | 46.4 ± 0.5 | 45.1 ± 0.4 | 44.2 ± 0.3 | 43.8 ± 0.4 | 43.4 ± 0.4 | 42.8 ± 0.5 | 42.1 ± 0.5
323.2 K | 48.9 ± 0.7 | 47.3 ± 2.2 | 46.1 ± 0.4 | 45.1 ± 0.4 | 44 ± 0.4 | 43.4 ± 0.3 | 43 ± 0.4 | 42.6 ± 0.4 | 42.1 ± 0.5 | 41.7 ± 0.5
